Literature values, collected in patent US8882743B2, “Apparatus and method for application of a pharmaceutical to the tympanic membrane for photodynamic laser myringotomy” (priority 2006, dated 2014).

System: tympanic membrane
Details: lance myringotomy with concomitant mitomycin-C versus myringotomy without mitomycin-C

Structure (SMILES): CO[C@@]12[C@H](COC(N)=O)C3=C(C(=O)C(C)=C(N)C3=O)N1C[C@@H]1N[C@@H]12 [mitomycin-C]
- time required for closure of the fistulae formed: statistically significant increase
